# Results as given in patent US11325929B2 (VivaVisionShanghaiLtd, priority 2017, dated 2022).
# Tested on: human T lymphocyte strain Jurkat (ATCC TIB-152) adhesion to ICAM-1
# Assay: T-cell adhesion assay (Jurkat cells on ICAM-1 coated plates)
# Type: cell-based
# Conditions: Homo sapiens; BCECF-AM labelled Jurkat cells, ICAM-1 coated plate, fluorescence readout; read-out: EC50 of cell adhesion and inhibition
# Description: Cell Adhesion Inhibition Experiments:
# T-cell adhesion assay was performed using human T lymphocyte strain Jurkat (ATCC TIB-152): goat Anti-Human IgG (Fc specific) (Sigma 18885) was diluted to 10 μg/ml in PBS, incubated 100 μL per well/96 well plate at 4° C. for 12 hours. Liquid in the well plate was poured off, blocked with 200 μL of 1% BSA at 37° C. for 90 minutes, and washed three times with PBS. 50 μL of 1 μg/mL ICAM-1 (containing 0.1% BSA, 0.01% Tween 20) was added to each well and incubated at 37° C. for 3 hours. The plate was washed 3 times with assay buffer (20 mM HEPES pH 7.6, 140 mM NaCl, 1 mM MgCl2, 1 mM MnCl2, 0.2% glucose).
# The Jurkat […] was centrifuged at 100-G, and cells were resuspended in an assay buffer (20 mM HEPES pH 7.6, 140 mM NaCl, 1 mM MgCl2, 1 mM MnCl2, 0.2% glucose) at 37° C.
# 2 μl of 1 mM of BCECF-AM per mL of the cell suspension was added. Incubated at 37° C. for 30 minutes, stirred up every 10 minutes during the incubation. After the incubation, the cells were washed with assay buffer at 37° C. The cells were suspended to a concentration of 6×10^6/mL.
# The inhibitor was diluted to a final concentration of 2× in assay buffer, and 50 μL of the compound solution and […] of Jurkat cells were mixed at room temperature, and incubated at 37° C. for 30 minutes. 100 μL/well of cells and inhibitors were added to the plate and incubated for 1 hour at room temperature. The total fluorescence was measured by a fluorometer: ex: 485; em: 530; cutoff: 530 to measure the total fluorescence. The plate was washed once with the assay buffer and the fluorescence was measured with a fluorometer: ex: 485; em: 530; cutoff. The results are plotted as inhibition-concentration plots and EC50 is calculated using standard methods.
row,EC50,SMILES
1,> 1 µM,"CP(=O)(CCc1cc(Cl)c(C(=O)N[C@@H](CN/C(=N\C#N)N2C[C@@H](O)[C@H](O)C2)C(=O)O)c(Cl)c1)c1cccc(O)c1 (stereo partly drawn) [Example 45, (2s)-3-((trans)-N′-cyano-3,4-dihydroxypyrrolidine-1-formamidino)-2-(2,6-dichloro-4-(2-(methyl(3-hydroxyphenyl)phosphoryl)ethyl)benzamido)propionic Acid]"
2,> 1 µM,"CP(=O)(CCc1cc(Cl)c(C(=O)N[C@@H](CN/C(=N\C#N)N(CCO)CCO)C(=O)O)c(Cl)c1)c1cccc(O)c1 (stereo partly shown) [Example 46, (2s)-3-(2-cyano-3,3-bis(2-hydroxyethyl)guanidino)-2-(2,6-dichloro-4-(2-(methyl(3-hydroxyphenyl)phosphoryl)ethyl)benzamido)propionic Acid]"
3,0.0068 µM,CP(=O)(C#Cc1cc(Cl)c(C(=O)N[C@@H](Cc2cccc(S(C)(=O)=O)c2)C(=O)O)c(Cl)c1)c1ccc(O)c(Cl)c1 (stereo partly shown) [Example 48]
4,0.0108 µM,CS(=O)(=O)c1cccc(C[C@H](NC(=O)c2c(Cl)cc(C#CP(=O)(O)c3ccc4ccoc4c3)cc2Cl)C(=O)O)c1 [Example 49]
5,0.016 µM,"CS(=O)(=O)c1cccc(C[C@H](NC(=O)c2c(Cl)cc(C(O)CP(=O)(O)c3cccc(O)c3)cc2Cl)C(=O)O)c1 (stereo partly shown) [Example 50, (2s)-2-(2,6-dichloro-4-(1-hydroxy 2-(hydroxy(3-hydroxyphenyl)phosphoryl)ethyl)benzamido)-3-(3-(methylsulfonyl)phenyl)propionic Acid]"
6,0.0042 µM,"CS(=O)(=O)c1cccc(C[C@H](NC(=O)c2c(Cl)cc(/C=C/P(=O)(O)c3cccc(O)c3)cc2Cl)C(=O)O)c1 [Example 51, (2s)-2-(2,6-dichloro-4-(2-(hydroxy(m-hydroxyphenyl)phosphoryl)vinyl)benzamido)-3-(3-(methylsulfonyl)phenyl)propionic Acid]"
7,0.074 µM,"CS(=O)(=O)c1cccc(C[C@H](NC(=O)c2c(Cl)cc(/C=C/P(=O)(c3cccc(O)c3)c3cccc(O)c3)cc2Cl)C(=O)O)c1 [Example 52, (S,E)-2-(4-(2-(bis(3-hydroxyphenyl)phosphonyl)vinyl)-2,6-dichlorobenzamido)-3-(3-(methylsulfonyl)phenyl)propionic Acid]"
8,0.022 µM,"CS(=O)(=O)c1cccc(C[C@H](NC(=O)c2c(Cl)cc(CCP(=O)(c3cccc(O)c3)c3cccc(O)c3)cc2Cl)C(=O)O)c1 [Example 53, (S,E)-2-(4-(2-(bis(3-hydroxyphenyl)phosphonyl)ethyl)-2,6-dichlorobenzamido)-3-(3-(methylsulfonyl)phenyl)propionic Acid]"
9,0.063 µM,CC(C)P(=O)(CCc1cc(Cl)c(C(=O)N[C@@H](Cc2cccc(S(C)(=O)=O)c2)C(=O)O)c(Cl)c1)c1cccc(O)c1 (stereo partly shown) [Example 56]
10,0.0053 µM,CS(=O)(=O)c1cccc(C[C@H](NC(=O)c2c(Cl)cc(/C=C/P(=O)(c3cccc(O)c3)C3CC3)cc2Cl)C(=O)O)c1 (stereo partly shown) [Example 57]
11,0.0019 µM,CP(=O)(/C=C/c1cc(Cl)c(C(=O)N[C@@H](Cc2cccc(S(C)(=O)=O)c2)C(=O)O)c(Cl)c1)c1cccc(O)c1 (stereo partly shown) [Example 58]

row,SMILES,EC50
1,COP(=O)(C#Cc1cc(Cl)c(C(=O)N[C@@H](Cc2cccc(S(C)(=O)=O)c2)C(=O)O)c(Cl)c1)c1ccccc1O (stereo partly shown) [Example 47],0.34 µM
2,CCOP(=O)(/C=C/c1cc(Cl)c(C(=O)N[C@@H](Cc2cccc(S(C)(=O)=O)c2)C(=O)O)c(Cl)c1)c1ccc(O)cc1 (stereo partly shown) [Example 54],0.0096 µM
